Test results published in patent US20250176550A1, “HERBICIDE COMPOSITION OF URACIL COMPOUND CONTAINING CARBOXYLATE FRAGMENT AND THE USE THEREOF” (Jiangsu Flag Chemical Industry Co., Ltd., priority 2022, published 2025).

How the values were obtained:
Test in all cases: Indoor virulence and combined effect, greenhouse pot test, post-emergence stem and leaf spray, fresh weight inhibition
Format in all cases: in vivo
[1] = tested on: digitaria sanguinalis; settings: for Fresh weight suppression rate %, A single agent: Table 14
Procedure, shortened: (§1)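 Weeds in greenhouse pots received a spray-tower treatment, either post-emergence at the 3–4 leaf (grasses) or 4–6 leaf (broadleaf) stage, or pre-emergence as a soil spray 24 h after sowing. Compounds were applied in acetone diluted with 0.1 wt% Tween-80 water, alone or mixed, in g/ha. Fresh weight inhibition was measured at 21 days, with synergy judged by Gowing expected efficacy (E−E0 >10%).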

[2] = tested on: alopecurus japonicus
Procedure, shortened: as §1

[3] = tested on: lolium multiflorum
Procedure, shortened: as §1

[4] = tested on: eleusine indica
Procedure, shortened: as §1

[5] = tested on: echinochloa crusgalli
Procedure, shortened: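 Greenhouse potted weeds sprayed post-emergence on stem and leaf at 3–4 leaf stage, with A and B alone or mixed; acetone solutions diluted in 0.1 wt% Tween-80, solvent-emulsifier water as blank.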

COCCOC(=O)C(C)(C)OC(=O)c1cc(-n2c(=O)cc(C(F)(F)F)n(C)c2=O)c(F)cc1Cl [Compound A-273]
Fresh weight inhibition rate %, A single agent ([1]; Table 1, 10 g a.i./ha, post-emergence, 21 days after treatment): 45.50% | Fresh weight inhibition rate %, A single agent ([1]; Table 1, 12.5 g a.i./ha, post-emergence, 21 days after treatment): 55.30% | Fresh weight inhibition rate %, A single agent ([1]; Table 1, 20 g a.i./ha, post-emergence, 21 days after treatment): 60.47% | Fresh weight inhibition rate %, A single agent ([1]; Table 1, 25 g a.i./ha, post-emergence, 21 days after treatment): 62.48% | Fresh weight inhibition rate %, A single agent ([1]; Table 13, A 20 g a.i./ha): 60.47% | Fresh weight inhibition rate %, A single agent ([1]; Table 13, A 25 g a.i./ha): 62.48% | Fresh weight inhibition rate %, A single agent ([1]; Table 13, A 30 g a.i./ha): 63.97% | Fresh weight suppression rate %, A single agent ([1]; A 10 g a.i./ha): 31.16% | Fresh weight suppression rate %, A single agent ([1]; A 15 g a.i./ha): 59.30% | Fresh weight suppression rate %, A single agent ([1]; A 20 g a.i./ha): 60.47% | Fresh weight suppression rate %, A single agent ([1]; A 30 g a.i./ha): 65.40% | Fresh weight inhibition rate %, A single agent ([1]; Table 15, A 15 g a.i./ha): 59.3% | Fresh weight inhibition rate %, A single agent ([1]; Table 15, A 20 g a.i./ha): 60.47% | Fresh weight inhibition rate %, A single agent ([1]; Table 15, A 25 g a.i./ha): 62.48% | Fresh weight inhibition rate %, A single agent ([1]; Table 16, A 10 g a.i./ha): 9.55% | Fresh weight inhibition rate %, A single agent ([1]; Table 16, A 20 g a.i./ha): 45.07% | Fresh weight inhibition rate %, A single agent ([1]; Table 16, A 25 g a.i./ha): 58.81% | Fresh weight inhibition rate %, A single agent ([1]; Table 16, A 30 g a.i./ha): 60.30% | Fresh weight inhibition rate %, A single agent ([1]; Table 41, A 10 g a.i./ha): 45.50% | Fresh weight inhibition rate %, A single agent ([1]; Table 41, A 15 g a.i./ha): 59.30% | Fresh weight inhibition rate %, A single agent ([1]; Table 41, A 20 g a.i./ha): 60.47% | Fresh weight inhibition rate %, A single agent ([1]; Table 41, A 25 g a.i./ha): 62.48% | Fresh weight inhibition rate %, A single agent ([2]; Table 5, 15 g a.i./ha, post-emergence, 21 days after treatment): 44.57% | Fresh weight inhibition rate %, A single agent ([2]; Table 5, 20 g a.i./ha, post-emergence, 21 days after treatment): 61.55% | Fresh weight inhibition rate %, A single agent ([2]; Table 5, 25 g a.i./ha, post-emergence, 21 days after treatment): 72.42% | Fresh weight inhibition rate %, A single agent ([2]; Table 25, A 15 g a.i./ha): 44.57% | Fresh weight inhibition rate %, A single agent ([2]; Table 25, A 20 g a.i./ha): 61.55% | Fresh weight inhibition rate %, A single agent ([2]; Table 25, A 25 g a.i./ha): 72.42% | Fresh weight inhibition rate %, A single agent ([2]; Table 25, A 30 g a.i./ha): 86.91% | Fresh weight inhibition rate %, A single agent ([3]; Table 19, A 5 g a.i./ha): 22.25% | Fresh weight inhibition rate %, A single agent ([3]; Table 19, A 10 g a.i./ha): 50.48% | Fresh weight inhibition rate %, A single agent ([3]; Table 19, A 15 g a.i./ha): 55.50% | Fresh weight inhibition rate %, A single agent ([3]; Table 19, A 20 g a.i./ha): 60.05% | Fresh weight inhibition rate %, A single agent ([3]; Table 20, A 5 g a.i./ha): 22.25% | Fresh weight inhibition rate %, A single agent ([3]; Table 20, A 10 g a.i./ha): 50.48% | Fresh weight inhibition rate %, A single agent ([3]; Table 20, A 15 g a.i./ha): 55.50% | Fresh weight inhibition rate %, A single agent ([3]; Table 20, A 20 g a.i./ha): 60.05% | Fresh weight inhibition rate %, A single agent ([3]; Table 27, A 15 g a.i./ha): 55.5% | Fresh weight inhibition rate %, A single agent ([3]; Table 27, A 20 g a.i./ha): 60.05% | Fresh weight inhibition rate %, A single agent ([3]; Table 27, A 25 g a.i./ha): 77.30% | Fresh weight inhibition rate %, A single agent ([4]; Table 18, A 5 g a.i./ha): 34.65% | Fresh weight inhibition rate %, A single agent ([4]; Table 18, A 10 g a.i./ha): 43.34% | Fresh weight inhibition rate %, A single agent ([4]; Table 18, A 15 g a.i./ha): 55.00% | Fresh weight inhibition rate %, A single agent ([4]; Table 18, A 20 g a.i./ha): 68.03% | Fresh weight inhibition rate %, A single agent ([4]; Table 32, A 15 g a.i./ha): 55.00% | Fresh weight inhibition rate %, A single agent ([4]; Table 32, A 20 g a.i./ha): 68.03% | Fresh weight inhibition rate %, A single agent ([4]; Table 32, A 25 g a.i./ha): 70.36% | Fresh weight inhibition rate %, A single agent ([4]; Table 33, A 10 g a.i./ha): 43.34% | Fresh weight inhibition rate %, A single agent ([4]; Table 33, A 15 g a.i./ha): 55.00% | Fresh weight inhibition rate %, A single agent ([4]; Table 33, A 20 g a.i./ha): 68.03% | Fresh weight inhibition rate %, A single agent ([4]; Table 33, A 25 g a.i./ha): 70.36% | Fresh weight inhibition rate %, A single agent ([4]; Table 33, A 30 g a.i./ha): 75.35% | Fresh weight inhibition rate %, A single agent ([4]; Table 35, A 10 g a.i./ha): 43.34% | Fresh weight inhibition rate %, A single agent ([4]; Table 35, A 15 g a.i./ha): 55.00% | Fresh weight inhibition rate %, A single agent ([4]; Table 35, A 20 g a.i./ha): 68.03% | Fresh weight inhibition rate %, A single agent ([4]; Table 35, A 25 g a.i./ha): 70.36% | Fresh weight inhibition rate %, A single agent ([4]; Table 36, A 5 g a.i./ha): 34.65% | Fresh weight inhibition rate %, A single agent ([4]; Table 36, A 10 g a.i./ha): 43.34% | Fresh weight inhibition rate %, A single agent ([4]; Table 36, A 15 g a.i./ha): 55.00% | Fresh weight inhibition rate %, A single agent ([4]; Table 36, A 20 g a.i./ha): 68.03% | Fresh weight inhibition rate %, A single agent ([4]; Table 36, A 25 g a.i./ha): 70.36% | Fresh weight inhibition rate %, A single agent ([5]; Table 17, 15 g a.i./ha, post-emergence, 21 days after treatment): 30.04% | Fresh weight inhibition rate %, A single agent ([5]; Table 17, 20 g a.i./ha, post-emergence, 21 days after treatment): 21.43% | Fresh weight inhibition rate %, A single agent ([5]; Table 17, 25 g a.i./ha, post-emergence, 21 days after treatment): 19.41% | Fresh weight inhibition rate %, A single agent ([5]; Table 37, A 10 g a.i./ha): 19.41% | Fresh weight inhibition rate %, A single agent ([5]; Table 37, A 15 g a.i./ha): 21.43% | Fresh weight inhibition rate %, A single agent ([5]; Table 37, A 20 g a.i./ha): 30.04% | Fresh weight inhibition rate %, A single agent ([5]; Table 37, A 25 g a.i./ha): 38.28% | Fresh weight inhibition rate %, A single agent ([5]; Table 44, A 10 g a.i./ha): 19.41% | Fresh weight inhibition rate %, A single agent ([5]; Table 44, A 15 g a.i./ha): 21.43% | Fresh weight inhibition rate %, A single agent ([5]; Table 44, A 20 g a.i./ha): 30.04% | Fresh weight inhibition rate %, A single agent ([5]; Table 44, A 25 g a.i./ha): 38.28%
